Data as given in US20080287445A1, “Prokineticin 2 receptor antagonists” (priority 2005, published 2008).
Values joined by “and” are separate entries in the source; they are usually repeats but may differ in a detail not shown here. Identical values can stand only once.

Target: T1, GPR73 (prokineticin 1 receptor) (Homo sapiens, UniProt Q8TCW9)
T1 construct: expressed in transfected cells; host or cells: HEK 293
Assay: PK1 functional assay: Ca2+ mobilization screening for PK1 antagonists on the FLIPR
Format: cell-based
Details: HEK 293 GPR73 cells, multiple values = multiple testing; for Ca^2+ Mobilization % Inh @ 10 μM: 10 μM compound; for inhibition at 10 µM: HEK293, 10 μM compound, read-out: Ca^2+ Mobilization % Inh @ 10 μM; for IC50: PK1 ligand preparation at its EC50, read-out: Ca^2+ Mobilization IC50
Procedure: At a time of 24 h prior to running the assay, in cell culture media (DMEM containing high Glucose and L-glutamine, 10% FBS, 1% Pen/Streptomycin, 1% Sodium Pyruvate, 20 mM HEPES, Zeocin 200 mg/L), 100 μL of 1.3*10^6/ml HEK 293 GPR73 (prokineticin 1 receptor) expressing cells were plated in a 96 well poly-d-lysine coated plate (Costar), and incubated at 37 C and 5% CO2. On the day in which the assay was run, the media was removed and 200 μL of 5× Calcium Plus Dye (Molecular Devices) which was previously resuspended with 200 mL of assay buffer [HBSS w/Ca^2+ and Mg^2+ w/o phenol red, 20 mM HEPES, 0.1% BSA, 10 mL probenecid (710 mg probenecid in 5 mL of 1N NaOH, to which was then added 5 mL HBSS containing 20 mM HEPES)] was added to each well of the 96-well plate. The plate was incubated at 37 C and 5% CO2 for 30 min in dark. The plate was removed and allowed to reach RT for 15 min in the dark. The assay was then run on the FLIPR. In Brief: base line read for 1 min, compound added (25 μL) and incubated for 4 min, 15 seconds, PK1 ligand preparation added (25 μL) for a final concentration of a previously determined EC50 and fluorescence was counted for 1 min, 45 seconds. Baseline is described as the amount of relative fluorescence read when buffer alone is added to cells. Baseline was subtracted from all wells. Percent of control was calculated as follows:
(Baseline subtracted well value is divided by baseline subtracted max value)*100. Percent inhibition is 100 minus the percent of control value.
The IC50 is defined as the amount of a given compound required to inhibit 50% of the maximum signal that is generated by the concentration of PK1 preparation used in our assay. IC50 values were calculated using GraphPad Prism.

T1 sequence (Q8TCW9 whole entry, species assumed): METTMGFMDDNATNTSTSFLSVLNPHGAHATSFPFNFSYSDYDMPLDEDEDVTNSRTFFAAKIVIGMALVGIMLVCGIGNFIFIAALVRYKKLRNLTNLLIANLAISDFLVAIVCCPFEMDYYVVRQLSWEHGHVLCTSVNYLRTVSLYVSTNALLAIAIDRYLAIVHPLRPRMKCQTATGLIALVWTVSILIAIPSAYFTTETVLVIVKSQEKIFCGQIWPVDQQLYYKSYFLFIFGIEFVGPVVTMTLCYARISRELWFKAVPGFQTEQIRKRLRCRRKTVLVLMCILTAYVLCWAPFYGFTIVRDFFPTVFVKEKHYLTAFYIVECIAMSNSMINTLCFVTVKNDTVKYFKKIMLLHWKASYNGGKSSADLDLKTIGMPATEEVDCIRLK

Row | Structure (SMILES) | Ca^2+ Mobilization % Inh @ 10 μM | inhibition at 10 µM | IC50
1 | COCCNc1ncccc1CNc1nc(=O)n(Cc2ccc(OC)cc2)c(=O)n1Cc1ccc(OC)cc1 [Cpd 50] | 100% | 91% | 24 nM and 72 nM
2 | COc1ccc(Cn2c(NCc3cccnc3NCCN(C)C)nc(=O)n(Cc3ccc(OC)cc3)c2=O)cc1 [Cpd 51] |  | 93% | 207 nM
3 | COc1ccc(Cn2c(=O)nc(NCc3cccnc3N)n(Cc3ccc(C(N)=O)cc3)c2=O)cc1 [Cpd 52] |  | 94% | 973 nM
4 | COc1ccc(Cn2c(NCc3ccc[n+]([O-])c3)nc(=O)n(Cc3ccc(OC)cc3)c2=O)cc1 [Cpd 53] |  | 45% | > 10000 nM
5 | COc1ccc(Cn2c(NCc3cccnc3N)nc(=O)n(Cc3ccc(O)cc3)c2=O)cc1 [Cpd 54, 6-[(2-Amino-pyridin-3-ylmethyl)-amino]-3-(4-hydroxy-benzyl)-1-(4-methoxy-benzyl)-1H-[1,3,5]triazine-2,4-dione] | 42% and 64% |  | 3470 nM and > 10000 nM
6 | COc1ccc(Cn2c(NCc3cccnc3N)nc(=O)n(Cc3cccc(F)c3)c2=O)cc1 [Cpd 55] |  | 44% | > 10000 nM
7 | COC(=O)c1ccc(Cn2c(=O)nc(NCc3cccnc3N)n(Cc3ccc(OC)cc3)c2=O)cc1 [Cpd 56] |  | 47% | > 10000 nM
8 | COc1ccc(Cn2c(NCc3cc(-c4ccccc4)cnc3N)nc(=O)n(Cc3ccc(OC)cc3)c2=O)cc1 [Cpd 57] |  | 59% | 4770 nM
9 | COc1ccc(Cn2c(NCc3c(OC)ccnc3N)nc(=O)n(Cc3ccc(OC)cc3)c2=O)cc1 [Cpd 58] |  | 95% | 89 nM
10 | COc1ccc(Cn2c(NCc3ccc(C)nc3)nc(=O)n(Cc3ccc(OC)cc3)c2=O)cc1 [Cpd 59] |  | 94% | 178 nM
11 | COc1ccc(Cn2c(NCc3cnc(C)cc3C)nc(=O)n(Cc3ccc(F)cc3)c2=O)cc1 [Cpd 60] |  | 88% | 350 nM
12 | COc1ccc(Cn2c(NCc3cnc(C)cc3C)cc(=O)n(Cc3ccc(OC)cc3)c2=O)cc1 [Cpd 61] | 101% | 87% | 
13 | COc1ccc(Cn2c(NCc3cc(C)ccn3)nc(=O)n(Cc3ccc(OC)cc3)c2=O)cc1 [Cpd 62] |  | 52% | 2030 nM
14 | CCc1ccc(Cn2c(NCc3cccnc3N)nc(=O)n(Cc3ccc(OC)cc3)c2=O)cc1 [Cpd 63] |  | 83% | 271 nM
15 | COc1ccc(Cn2c(NCc3cccc(C(F)(F)F)n3)nc(=O)n(Cc3ccc(OC)cc3)c2=O)cc1 [Cpd 64] | 51% | 50% | 5260 nM and 8510 nM
16 | COc1ccc(Cn2c(NCc3ncccc3C)nc(=O)n(Cc3ccc(OC)cc3)c2=O)cc1 [Cpd 65] |  |  | > 10000 nM
17 | COc1ccc(Cn2c(NCc3cccnc3NCCSC)nc(=O)n(Cc3ccc(OC)cc3)c2=O)cc1 [Cpd 66] |  | 92% | 401 nM
18 | COc1ccc(Cn2c(NCc3cccnc3NCCC(C)C)nc(=O)n(Cc3ccc(OC)cc3)c2=O)cc1 [Cpd 67] |  | 55% | 4820 nM
19 | COc1ccc(Cn2c(NCc3cccnc3NCC3CCCO3)nc(=O)n(Cc3ccc(OC)cc3)c2=O)cc1 (centres unmarked) [Cpd 68] |  | 95% | 217 nM
20 | COc1ccc(Cn2c(NCc3cccnc3NCc3ccco3)nc(=O)n(Cc3ccc(OC)cc3)c2=O)cc1 [Cpd 69] |  | 93% | 337 nM
21 | CCN1CCCC1CNc1ncccc1CNc1nc(=O)n(Cc2ccc(OC)cc2)c(=O)n1Cc1ccc(OC)cc1 (centres unmarked) [Cpd 70] |  | 94% | 560 nM
22 | COCCNc1ncccc1CNc1nc(=O)n(CCc2ccccc2)c(=O)n1Cc1ccc(OC)cc1 [Cpd 71] |  | 38% | > 10000 nM
23 | COCCNc1ncccc1CNc1nc(=O)n(CCOc2ccccc2)c(=O)n1Cc1ccc(OC)cc1 [Cpd 72] |  | 81% | 1170 nM
24 | COCCNc1ncccc1CNc1nc(=O)n(CC2COc3ccccc3O2)c(=O)n1Cc1ccc(OC)cc1 (centres unmarked) [Cpd 73] |  | 58% | 5930 nM
25 | COCCNc1ncccc1CNc1nc(=O)n(CCc2ccc([N+](=O)[O-])cc2)c(=O)n1Cc1ccc(OC)cc1 [Cpd 74] |  | 54% | 7460 nM
26 | COc1ccc(Cn2c(=O)nc(NCc3cccnc3N)n(Cc3ccc(SC)cc3)c2=O)cc1 [Cpd 75] |  | 99% | 131 nM

Other lines, results leading:

Row | Ca^2+ Mobilization % Inh @ 10 μM | inhibition at 10 µM | IC50 | Structure (SMILES)
27 |  | 67% | 1460 nM | COc1ccc(Cn2c(=O)nc(NCc3cccnc3N)n(Cc3ccncc3)c2=O)cc1 [Cpd 76]
28 |  | 91% | 449 nM | COc1ccc(Cn2c(=O)nc(NCc3cccnc3N)n(Cc3cc4ccccc4o3)c2=O)cc1 [Cpd 77]
29 | 95% | 94% | 36 nM and 113 nM | COCCCCCn1c(NCc2cccnc2N)nc(=O)n(Cc2ccc(OC)cc2)c1=O [Cpd 78, 6-[(2-Amino-pyridin-3-ylmethyl)-amino]-3-(4-methoxy-benzyl)-1-(5-methoxy-pentyl)-1H-[1,3,5]triazine-2,4-dione]
30 |  | 85% | 679 nM | CCCCCCn1c(NCc2cccnc2N)nc(=O)n(Cc2ccc(OC)cc2)c1=O [Cpd 79]
31 |  | 70% | 2030 nM | COc1ccc(Cn2c(=O)nc(NCc3cccnc3N)n(Cc3cccc(OC)c3)c2=O)cc1 [Cpd 80]
32 |  | 36% | > 10000 nM | COc1ccc(Cn2c(=O)nc(NCc3cccnc3N)n(Cc3cccc(C#N)c3)c2=O)cc1 [Cpd 81]
33 |  | 38% | > 10000 nM | COc1ccc(Cn2c(=O)nc(NCc3cccnc3N)n(Cc3cccc([N+](=O)[O-])c3)c2=O)cc1 [Cpd 82]
34 |  | 82% | 668 nM | COc1ccc(Cn2c(NCc3cnc(C)cc3C)nc(=O)n(Cc3ccc(OC(F)F)cc3)c2=O)cc1 [Cpd 83]
35 |  | 70% | 1220 nM | COc1ccc(Cn2c(NCc3cccnc3N)nc(=O)n(Cc3ccc(OC(F)F)cc3)c2=O)cc1 [Cpd 84]
36 |  | 31% | > 10000 nM | CCc1ccccc1Cn1c(NCc2cccnc2N)nc(=O)n(Cc2ccc(OC)cc2)c1=O [Cpd 86]
37 |  | 53% | > 10000 nM | COc1ccc(Cn2c(=O)nc(NCc3cccnc3N)n(Cc3ccccc3OC(F)(F)F)c2=O)cc1 [Cpd 87]
38 |  | 41% | > 10000 nM | COc1ccc(Cn2c(=O)nc(NCc3cccnc3N)n(Cc3ccccc3C#N)c2=O)cc1 [Cpd 88]
39 |  | 82% | 817 nM | COc1ccc(Cn2c(NCc3cccnc3N)nc(=O)n(Cc3ccc(I)cc3)c2=O)cc1 [Cpd 89]
40 |  | 71% | 2330 nM | COc1ccc(Cn2c(NCc3cccnc3N)nc(=O)n(Cc3ccc(-n4cccn4)cc3)c2=O)cc1 [Cpd 90]
41 |  | 59% | 3980 nM | Nc1ncccc1CNc1nc(=O)n(Cc2ccc(F)cc2)c(=O)n1Cc1ccc(OC(F)(F)F)cc1 [Cpd 91]
42 |  | 58% | 5160 nM | COc1ccc(Cn2c(=O)nc(NCc3cccnc3N)n(Cc3ccccc3OC)c2=O)cc1 [Cpd 92]
43 |  | 96% | 116 nM | COC(=O)c1cccc(Cn2c(NCc3cccnc3N)nc(=O)n(Cc3ccc(OC)cc3)c2=O)c1 [Cpd 93]
44 |  | 91% | 373 nM | COc1ccc(CCn2c(NCc3cccnc3N)nc(=O)n(Cc3ccc(OC)cc3)c2=O)cc1 [Cpd 94]
45 |  | 92% | 84 nM | COc1ccc(Cn2c(=O)nc(NCc3cccnc3N)n(Cc3ccc(OC)nc3)c2=O)cc1 [Cpd 95]
46 |  |  | 273 nM | COc1ccc(Cn2c(=O)nc(NCc3cnc(C)cc3C)n(Cc3ccc(OC(F)F)cc3)c2=O)cc1 [Cpd 96]
47 | 96% and 98% | 90% | 6 nM and 7 nM and 19 nM | COc1ccc(Cn2c(NCc3c(C)cc(C)nc3N)nc(=O)n(Cc3ccc(OC)cc3)c2=O)cc1 [Cpd 97, 6-[(2-Amino-4,6-dimethyl-pyridin-3-ylmethyl)-amino]-1,3-bis-(4-methoxy-benzyl)-1H-[1,3,5]triazine-2,4-dione]
48 |  | 77% | 736 nM | COc1ccc(Cn2c(=O)nc(NCc3cccnc3N)n(Cc3cccc(OC(F)(F)F)c3)c2=O)cc1 [Cpd 98]
49 |  | 91% | 100 nM | COc1ccc(Cn2c(=O)nc(NCc3cnc(C)cc3C)n(Cc3cccc(OC(F)(F)F)c3)c2=O)cc1 [Cpd 99]
50 |  | 62% | 533 nM | COc1ccc(Cn2c(=O)nc(NCc3cnc(C)cc3C)n(Cc3ccc(SC)cc3)c2=O)cc1 [Cpd 100]
51 |  | 60% | 3300 nM | COc1ccc(Cn2c(=O)nc(NCc3cnc(C)cc3C)n(Cc3ccncc3)c2=O)cc1 [Cpd 101]
